One may read the MIC as the smallest concentration in the dilution series that meets the test's criterion for growth inhibition. As a reminder, the IC50 is the concentration that gives 50% inhibition. What is called CC50 is the concentration that lowers cell viability or growth by half. Low readings indicate greater toxicity to the cells, high ones lower toxicity to the cells.

The results in this text go back to ChEMBL document CHEMBL1144064, “Biological evaluation of proanthocyanidin dimers and related polyphenols” (J Nat Prod, 1999).

One series has as its system Escherichia coli. Nature of the series: Antimicrobial activity against Escherichia coli. It is filed as functional.
In the next series the test system is Salmonella paratyphi. Kind of series: Antimicrobial activity against Salmonella paratyphi. It is filed as functional, Salmonella enterica subsp. enterica serovar Paratyphi A. The note with it: Salmonella enterica.
For series [1], the system named is Human immunodeficiency virus. Nature of the series: Antiviral activity against HIV infected in human MT4 cells assessed as inhibition of virus-induced cytopathic effect by MTT assay. It is filed as functional, organism-based. Particulars: Human immunodeficiency virus 1, MT4.
Series [2] in a line: Selectivity index, ratio of CC50 for human MT4 cells to IC50 for HIV infected in human MT4 cells. It is filed as functional.
In a further series the test system is Pseudomonas aeruginosa. Kind of series: Antimicrobial activity against Pseudomonas aeruginosa. It is filed as functional.
The test system of a further series is Enterobacter cloacae. Kind of series: Antimicrobial activity against Enterobacter cloacae. It is filed as functional.
In the next series the test system is Simplexvirus. Kind of series: Antiviral activity against HSV up to 200 ug/mL by extracellular virucidal assay. It is filed as functional, organism-based.
Series [3] can be described thus: Antioxidant activity assessed as superoxide radical anion scavenging activity. It is filed as functional.
A short description of series [4]: Cytotoxicity against human MT4 cells by MTT assay. It is filed as cell-based. (In general: Formazan colour is commonly taken as a measure of viable cells.)
In series [5] the test system is Mycolicibacterium fortuitum. Nature of the series: Antimicrobial activity against Mycobacterium fortuitum. It is filed as functional.
The subject of the next series is Staphylococcus aureus. Kind of series: Antimicrobial activity against Staphylococcus aureus. It is filed as functional.
Series [6] in a line: Modulation of alternative complement pathway system assessed as hemoglobin release by spectrophotometry.
Series [7] can be described thus: Modulation of classical complement pathway system assessed as hemoglobin release by spectrophotometry.
A further series relates to Candida albicans. Kind of series: Antimicrobial activity against Candida albicans. It is filed as functional.
Another series relates to Streptococcus pyogenes. Kind of series: Antimicrobial activity against Streptococcus pyogenes. It is filed as functional.

In brackets after ≈: the same amount, converted by molar mass. Activity calls are given as the source filed them.

For the molecule `Oc1cc(O)c2c(c1)O[C@H](c1ccc(O)c(O)c1)[C@@H](O)[C@@H]2c1c(O)cc(O)c2c1O[C@H](c1ccc(O)c(O)c1)[C@H](O)C2`, the MBC (in the series on Escherichia coli; against Salmonella paratyphi; in the series on Pseudomonas aeruginosa; against Enterobacter cloacae; in series [5]; in the series with Staphylococcus aureus) was above 100 µg/mL each time. The MBC with Candida albicans is above 100 µg/mL; against Streptococcus pyogenes, 50 µg/mL (≈ 86.4 µM). The MIC (with Escherichia coli; with Salmonella paratyphi; in the series on Pseudomonas aeruginosa; against Enterobacter cloacae; in series [5]; against Staphylococcus aureus) was above 100 µg/mL in each case. Also, the results for the minimum inhibitory concentration (MIC) in the series on Candida albicans and in the series with Streptococcus pyogenes were above 100 µg/mL and 25 µg/mL (≈ 43.2 µM), respectively. Further, the IC50 in series [1] was above 0.3 µg/mL; in series [3], 30 µM; in series [7] it was 45.5 µM. The “Ratio CC50/IC50” value in [2] is on record as below 1. Further, the result (in the series on Simplexvirus; in [6]) was inactive. The molecule also returned a CC50 in series [4] of 0.3 µg/mL (≈ 0.519 µM).

With `Oc1cc(O)c2c(c1)O[C@H](c1ccc(O)c(O)c1)[C@@H](O)[C@@H]2c1c(O)cc2c(c1O)C[C@@H](O)[C@@H](c1ccc(O)c(O)c1)O2`, the MBC (against Escherichia coli; against Salmonella paratyphi; in the series on Pseudomonas aeruginosa; in the series on Enterobacter cloacae; in [5]; against Staphylococcus aureus) was above 100 µg/mL throughout. The MBC in the series with Candida albicans is above 100 µg/mL. The MIC (against Escherichia coli; with Salmonella paratyphi; with Pseudomonas aeruginosa; against Enterobacter cloacae; in series [5]; against Staphylococcus aureus) was above 100 µg/mL in each case. This molecule also gave an MIC in the series with Candida albicans above 100 µg/mL. Besides, the IC50 in [1] turned out to be 19.6 µg/mL (≈ 33.9 µM); in series [3] it was 32.9 µM; in series [6], 83.7 µM; in series [7], 19.7 µM. Further, in [2], the “Ratio CC50/IC50” value turned out to be 8. The outcome in the series with Simplexvirus was inactive. Moreover, the half-maximal cytotoxic concentration (CC50) in series [4] was found to be 127 µg/mL (≈ 219 µM).

Consider `Oc1cc(O)c2c(c1)O[C@H](c1cc(O)c(Oc3cc(O)c4c(c3)O[C@H](c3cc(O)c(O)c(O)c3)[C@H](O)C4)c(O)c1)[C@@H](O)C2`, for which the MBC (in the series with Escherichia coli; with Salmonella paratyphi; with Pseudomonas aeruginosa; in the series on Enterobacter cloacae; in [5]; against Staphylococcus aureus) was above 100 µg/mL throughout. Further, the MBC against Candida albicans was above 100 µg/mL. Also, the MIC (against Escherichia coli; against Salmonella paratyphi; against Pseudomonas aeruginosa; against Enterobacter cloacae; in series [5]; against Staphylococcus aureus) was above 100 µg/mL each time. For the same molecule, the MIC against Candida albicans was above 100 µg/mL. In addition, the figures for the IC50 in [3], in series [6] and in series [7] were 2 µM, 86 µM and 14.6 µM, respectively.

Regarding `Oc1cc(O)c2c(c1)O[C@H](c1ccc(O)c(O)c1)[C@@H](O)[C@@H]2c1c(O)cc(O)c2c1O[C@H](c1ccc(O)c(O)c1)[C@@H](O)C2`, the MBC (in the series with Escherichia coli; in the series with Salmonella paratyphi; against Pseudomonas aeruginosa; against Enterobacter cloacae; in series [5]; in the series with Staphylococcus aureus) was above 100 µg/mL throughout. Besides, the MBC in the series with Candida albicans is above 100 µg/mL. Further, the minimal inhibitory concentration (MIC) (in the series with Escherichia coli; with Salmonella paratyphi; in the series on Pseudomonas aeruginosa; against Enterobacter cloacae; in series [5]; against Staphylococcus aureus) was above 100 µg/mL throughout. The molecule further registered an MIC with Candida albicans above 100 µg/mL. In addition, the results for the IC50 in series [1], in [3] and in [7] were 27 µg/mL (≈ 46.7 µM), 41.3 µM and 37.7 µM, respectively. For the same molecule, the “Ratio CC50/IC50” value in series [2] is 5. Also, the outcome (in the series with Simplexvirus; in [6]) was inactive. Also, in series [4], it took 118 µg/mL (≈ 204 µM) to reach half-maximal cytotoxicity (CC50).

Regarding `Oc1cc(O)c2c(c1)O[C@H](c1ccc(O)c(O)c1)[C@@H](O)[C@@H]2c1c(O)cc2c(c1O)C[C@H](O)[C@@H](c1ccc(O)c(O)c1)O2`, the MBC (in the series with Escherichia coli; against Salmonella paratyphi; in the series on Pseudomonas aeruginosa; against Enterobacter cloacae; in series [5]; with Staphylococcus aureus) was above 100 µg/mL each time. The MBC is above 100 µg/mL against Candida albicans and 100 µg/mL (≈ 173 µM) against Streptococcus pyogenes. The MIC (with Escherichia coli; in the series on Salmonella paratyphi; in the series with Pseudomonas aeruginosa; against Enterobacter cloacae; in [5]; in the series with Staphylococcus aureus) was above 100 µg/mL throughout. Moreover, the MIC is above 100 µg/mL with Candida albicans and 100 µg/mL (≈ 173 µM) in the series with Streptococcus pyogenes. The concentration for half-maximal inhibition (IC50) amounted to 29.9 µg/mL (≈ 51.7 µM) in series [1], 27.3 µM in [3] and 18.5 µM in series [7]. The “Ratio CC50/IC50” value in series [2] was 5. Moreover, the result (in the series on Simplexvirus; in [6]) was inactive. The same molecule gave a CC50 in series [4] of 141 µg/mL (≈ 244 µM).

With `Oc1cc(O)c2c(c1)O[C@H](c1ccc(O)c(O)c1)[C@H](O)[C@H]2c1c(O)cc2c(c1O)C[C@@H](O)[C@@H](c1ccc(O)c(O)c1)O2`, the MBC (in the series on Escherichia coli; in the series on Salmonella paratyphi; against Pseudomonas aeruginosa; in the series on Enterobacter cloacae; in series [5]; in the series on Staphylococcus aureus) was above 100 µg/mL throughout. Besides, the MBC against Candida albicans is above 100 µg/mL; with Streptococcus pyogenes, 100 µg/mL (≈ 173 µM). Moreover, the MIC (in the series on Escherichia coli; in the series with Salmonella paratyphi; in the series on Pseudomonas aeruginosa; in the series on Enterobacter cloacae; in series [5]; in the series with Staphylococcus aureus) was above 100 µg/mL in each case. Besides, the values for the MIC in the series on Candida albicans and against Streptococcus pyogenes were above 100 µg/mL and 100 µg/mL (≈ 173 µM), respectively. For the same molecule, the figures for the IC50 in series [1], in series [3] and in series [7] were 8.3 µg/mL (≈ 14.3 µM), 11.4 µM and 51.7 µM, respectively. For the same molecule, the “Ratio CC50/IC50” value in series [2] is on record as 9. For the same molecule, the result (in the series on Simplexvirus; in series [6]) was inactive. The half-maximal cytotoxic concentration (CC50) in series [4] stood at 53.5 µg/mL (≈ 92.5 µM).

In the case of `O=C1c2c(O)cc(O)cc2O[C@H](c2ccc(O)c(O)c2)[C@H]1O` [(+)-TAXIFOLIN], the MBC (against Escherichia coli; in the series with Salmonella paratyphi; against Pseudomonas aeruginosa; in the series on Enterobacter cloacae; in series [5]; against Staphylococcus aureus) was above 100 µg/mL each time. For the same molecule, in the series with Candida albicans, the MBC was above 100 µg/mL. For the same molecule, the MIC (against Escherichia coli; in the series on Salmonella paratyphi; with Pseudomonas aeruginosa; in the series with Enterobacter cloacae; in [5]; in the series with Staphylococcus aureus) was above 100 µg/mL in each case. The MIC in the series on Candida albicans is above 100 µg/mL. The IC50 in [1] is above 25.4 µg/mL; in series [3], 24.2 µM; in series [7], 850 µM. The “Ratio CC50/IC50” value in [2] is recorded as below 1. Further, the outcome (with Simplexvirus; in series [6]) was inactive. In series [4], this molecule yielded a CC50 of 25.4 µg/mL (≈ 83.5 µM).

Take `Oc1cc(O)c2c(c1)O[C@H](c1ccc(O)c(O)c1)[C@H](O)C2` [(-)-EPICATECHIN]: the MBC (with Escherichia coli; against Salmonella paratyphi; in the series with Pseudomonas aeruginosa; against Enterobacter cloacae; in series [5]; against Staphylococcus aureus) was above 100 µg/mL throughout. The same molecule came in with an MBC against Candida albicans above 100 µg/mL. Also, the minimal inhibitory concentration (MIC) (against Escherichia coli; with Salmonella paratyphi; against Pseudomonas aeruginosa; against Enterobacter cloacae; in [5]; against Staphylococcus aureus) was above 100 µg/mL each time. The molecule further had an MIC in the series on Candida albicans above 100 µg/mL. The results for the IC50 in [1], in series [3] and in series [7] were 34.1 µg/mL (≈ 117 µM), 18.3 µM and 656 µM, respectively. Further, in series [2], the “Ratio CC50/IC50” value amounted to 4. The same molecule gave a 50% cytotoxic concentration (CC50) in series [4] of 136 µg/mL (≈ 469 µM). In addition, the result in series [6] was inactive.

Turning to `Oc1cc(O)c2c(c1)O[C@H](c1ccc(O)c(O)c1)[C@@H](O)C2` [CIANIDANOL], the MBC (against Escherichia coli; with Salmonella paratyphi; in the series on Pseudomonas aeruginosa; in the series with Enterobacter cloacae; in [5]; in the series on Staphylococcus aureus) was above 100 µg/mL throughout. Besides, the MBC with Candida albicans is above 100 µg/mL. The MIC (with Escherichia coli; with Salmonella paratyphi; in the series with Pseudomonas aeruginosa; in the series on Enterobacter cloacae; in series [5]; against Staphylococcus aureus) was above 100 µg/mL in each case. Besides, in the series with Candida albicans, the MIC is above 100 µg/mL. Besides, the IC50 was above 86.8 µg/mL in series [1], 13.1 µM in [3] and 647 µM in [7]. The “Ratio CC50/IC50” value in series [2] is below 1. This molecule returned a CC50 in series [4] of 86.8 µg/mL (≈ 299 µM). Further, the outcome in series [6] was inactive.

Regarding `Oc1cc(O)c2c(c1)O[C@H](c1ccc(O)c(O)c1)[C@H](O)[C@H]2c1c(O)cc(O)c2c1O[C@H](c1ccc(O)c(O)c1)[C@@H](O)C2` [PROCYANIDIN B1], the MBC (in the series on Escherichia coli; with Salmonella paratyphi; with Pseudomonas aeruginosa; with Enterobacter cloacae; in [5]; in the series with Staphylococcus aureus) was above 100 µg/mL each time. The same molecule displayed an MBC against Candida albicans above 100 µg/mL. The MIC (in the series with Escherichia coli; in the series on Salmonella paratyphi; against Pseudomonas aeruginosa; with Enterobacter cloacae; in [5]; against Staphylococcus aureus) was above 100 µg/mL in each case. In the series with Candida albicans, this molecule registered an MIC above 100 µg/mL. Besides, the IC50 in [6] came out at 72 µM; in series [7] it was 31.3 µM.

For the molecule `O=C(/C=C/c1ccc(O)c(O)c1)O[C@H](Cc1ccc(O)c(O)c1)C(=O)O` [ROSMARINIC ACID], the IC50 was 408 µM in series [6] and 21.9 µM in series [7].

On to `Cc1cn([C@H]2C[C@H](N=[N+]=[N-])[C@@H](CO)O2)c(=O)[nH]c1=O` [ZIDOVUDINE], for which, in series [1], the IC50 worked out at 0.0002 µg/mL (≈ 0.000748 µM). This molecule gave a CC50 in [4] of 2.58 µg/mL (≈ 9.66 µM).
